Results as given in publication PMC5061470, “Promiscuous targeting of bromodomains by bromosporine identifies BET proteins as master regulators of primary transcription response in leukemia” (Science Advances, 2016).

Columns and labels:
[1] = molecular target: T1, PB1(5) (Homo sapiens, UniProt Q86U86); type: binding
T1 construct: Human BRDs were subcloned into bacteria-expressing vectors; made in house; host or cells: bacteria

[2] = molecular target: BLT1 (LTB4) (h) (Homo sapiens, UniProt Q15722); assay: biochemical; settings: read-out: % Inhibition of Control Specific Binding
BLT1 (LTB4) (h), sequence (Q15722 whole entry): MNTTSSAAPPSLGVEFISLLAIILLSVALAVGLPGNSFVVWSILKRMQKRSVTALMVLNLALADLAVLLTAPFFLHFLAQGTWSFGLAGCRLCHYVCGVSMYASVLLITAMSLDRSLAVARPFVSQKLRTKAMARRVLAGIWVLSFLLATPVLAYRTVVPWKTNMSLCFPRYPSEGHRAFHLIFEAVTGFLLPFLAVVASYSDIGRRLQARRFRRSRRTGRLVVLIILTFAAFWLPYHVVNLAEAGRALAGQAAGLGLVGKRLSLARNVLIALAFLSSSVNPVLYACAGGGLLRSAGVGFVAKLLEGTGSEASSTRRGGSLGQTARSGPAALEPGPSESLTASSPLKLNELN

[3] = molecular target: T2, BAZ2A (Homo sapiens, UniProt Q9UIF9); type: binding
T2 construct: Human BRDs were subcloned into bacteria-expressing vectors; made in house
T2 sequence (Q9UIF9 1793-1897 limits assumed): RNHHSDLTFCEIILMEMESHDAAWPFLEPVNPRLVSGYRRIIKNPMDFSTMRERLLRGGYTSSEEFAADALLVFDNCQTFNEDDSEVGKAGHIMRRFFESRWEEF

[4] = molecular target: CECR2 (Homo sapiens, UniProt Q9BXF3); type: binding
CECR2, sequence (Q9BXF3 434-538 limits assumed): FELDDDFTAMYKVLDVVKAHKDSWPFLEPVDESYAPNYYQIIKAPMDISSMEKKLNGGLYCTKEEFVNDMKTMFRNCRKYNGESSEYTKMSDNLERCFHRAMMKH

[5] = molecular target: CCK1 (CCKA) (h) (Homo sapiens, UniProt P32238); assay: biochemical; settings: read-out: % Inhibition of Control Specific Binding
CCK1 (CCKA) (h), sequence (P32238 whole entry): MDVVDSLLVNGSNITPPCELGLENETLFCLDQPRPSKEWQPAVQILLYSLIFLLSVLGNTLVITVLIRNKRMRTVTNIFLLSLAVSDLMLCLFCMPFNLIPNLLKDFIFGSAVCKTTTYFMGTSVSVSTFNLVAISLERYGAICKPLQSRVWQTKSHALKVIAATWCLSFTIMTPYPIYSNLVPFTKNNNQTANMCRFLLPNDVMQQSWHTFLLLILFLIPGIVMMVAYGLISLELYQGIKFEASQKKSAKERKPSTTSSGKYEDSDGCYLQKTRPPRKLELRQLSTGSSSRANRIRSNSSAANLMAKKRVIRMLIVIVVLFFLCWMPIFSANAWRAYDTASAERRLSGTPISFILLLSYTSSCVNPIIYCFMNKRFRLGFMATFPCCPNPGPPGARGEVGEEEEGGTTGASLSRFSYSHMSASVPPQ

[6] = molecular target: D2S (h) (Homo sapiens, UniProt P14416); assay: biochemical; settings: read-out: % Inhibition of Control Specific Binding
D2S (h), sequence (P14416 other isoform, or with tags, fused parts or gaps): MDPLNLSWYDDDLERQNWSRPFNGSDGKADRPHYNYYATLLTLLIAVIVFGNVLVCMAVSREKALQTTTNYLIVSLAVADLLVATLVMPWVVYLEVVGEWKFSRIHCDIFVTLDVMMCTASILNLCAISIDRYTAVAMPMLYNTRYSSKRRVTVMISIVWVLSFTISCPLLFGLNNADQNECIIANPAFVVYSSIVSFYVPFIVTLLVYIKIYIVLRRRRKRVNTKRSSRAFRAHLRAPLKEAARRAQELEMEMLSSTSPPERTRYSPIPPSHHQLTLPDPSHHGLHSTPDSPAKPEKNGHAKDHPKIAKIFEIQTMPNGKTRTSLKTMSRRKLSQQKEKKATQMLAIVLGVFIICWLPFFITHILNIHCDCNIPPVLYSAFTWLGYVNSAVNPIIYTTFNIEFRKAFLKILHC

[7] = molecular target: kappa (KOP) (Rattus norvegicus, UniProt P34975); assay: biochemical; settings: read-out: % Inhibition of Control Specific Binding
kappa (KOP), sequence (P34975 whole entry): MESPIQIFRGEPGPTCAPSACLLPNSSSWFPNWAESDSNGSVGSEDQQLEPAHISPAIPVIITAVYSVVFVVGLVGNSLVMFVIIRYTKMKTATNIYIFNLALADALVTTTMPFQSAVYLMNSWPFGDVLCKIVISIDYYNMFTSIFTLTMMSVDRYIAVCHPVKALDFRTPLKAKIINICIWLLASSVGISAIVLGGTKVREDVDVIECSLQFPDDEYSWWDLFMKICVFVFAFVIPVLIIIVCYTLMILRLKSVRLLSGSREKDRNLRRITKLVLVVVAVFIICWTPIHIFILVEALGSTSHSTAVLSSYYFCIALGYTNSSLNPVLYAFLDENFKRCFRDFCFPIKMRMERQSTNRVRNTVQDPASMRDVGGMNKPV

[8] = molecular target: H3 (h) (Homo sapiens, UniProt Q9Y5N1); assay: biochemical; settings: read-out: % Inhibition of Control Specific Binding
H3 (h), sequence (Q9Y5N1 whole entry): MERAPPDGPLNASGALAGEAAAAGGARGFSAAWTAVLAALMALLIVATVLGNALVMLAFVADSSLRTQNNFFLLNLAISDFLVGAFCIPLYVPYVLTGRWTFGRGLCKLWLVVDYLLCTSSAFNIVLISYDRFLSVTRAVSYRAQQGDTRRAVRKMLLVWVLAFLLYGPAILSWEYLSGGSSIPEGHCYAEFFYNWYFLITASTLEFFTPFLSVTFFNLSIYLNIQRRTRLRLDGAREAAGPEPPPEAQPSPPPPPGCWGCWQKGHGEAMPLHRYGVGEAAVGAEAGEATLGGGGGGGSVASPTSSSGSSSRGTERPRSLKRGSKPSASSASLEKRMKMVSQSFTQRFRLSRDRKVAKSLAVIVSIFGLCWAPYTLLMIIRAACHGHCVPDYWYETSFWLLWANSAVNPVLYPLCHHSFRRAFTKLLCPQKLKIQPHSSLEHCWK

[9] = molecular target: CCR2 (h) (Homo sapiens, UniProt P41597); assay: CEREP binding, agonist radioligand; settings: read-out: % Inhibition of Control Specific Binding
[10] = molecular target: AT1 (h) (Homo sapiens, UniProt P30556); assay: biochemical; settings: read-out: % Inhibition of Control Specific Binding
[11] = molecular target: MC1 (Mus musculus, UniProt Q01727); assay: biochemical; settings: read-out: % Inhibition of Control Specific Binding
[12] = molecular target: Ca2+ channel (L, dihydropyridine site) (Rattus norvegicus, UniProt P22002); assay: biochemical; settings: read-out: % Inhibition of Control Specific Binding
[13] = molecular target: full-length GFP-tagged BRD9 in U2OS cells (Homo sapiens, UniProt Q9H8M2); type: cell-based
[14] = tested on: Na+ channel (site 2); type: binding
[15] = molecular target: T3, TAF1L(2) (Homo sapiens, UniProt Q8IZX4); type: binding
T3 construct: the second BRD of TAF1L [TAF1L(2); S2E]; made in house; host or cells: bacteria
T3 sequence (Q8IZX4 1517-1626 limits assumed): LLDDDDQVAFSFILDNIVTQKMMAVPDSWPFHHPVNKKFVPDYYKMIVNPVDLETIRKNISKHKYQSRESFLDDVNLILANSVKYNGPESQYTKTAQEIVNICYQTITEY

[16] = tested on: K562; type: cell-based, human
[17] = molecular target: GABAB(1b) (h) (Homo sapiens, UniProt Q9UBS5); assay: biochemical; settings: read-out: % Inhibition of Control Specific Binding
GABAB(1b) (h), sequence (Q9UBS5 other isoform, or with tags, fused parts or gaps): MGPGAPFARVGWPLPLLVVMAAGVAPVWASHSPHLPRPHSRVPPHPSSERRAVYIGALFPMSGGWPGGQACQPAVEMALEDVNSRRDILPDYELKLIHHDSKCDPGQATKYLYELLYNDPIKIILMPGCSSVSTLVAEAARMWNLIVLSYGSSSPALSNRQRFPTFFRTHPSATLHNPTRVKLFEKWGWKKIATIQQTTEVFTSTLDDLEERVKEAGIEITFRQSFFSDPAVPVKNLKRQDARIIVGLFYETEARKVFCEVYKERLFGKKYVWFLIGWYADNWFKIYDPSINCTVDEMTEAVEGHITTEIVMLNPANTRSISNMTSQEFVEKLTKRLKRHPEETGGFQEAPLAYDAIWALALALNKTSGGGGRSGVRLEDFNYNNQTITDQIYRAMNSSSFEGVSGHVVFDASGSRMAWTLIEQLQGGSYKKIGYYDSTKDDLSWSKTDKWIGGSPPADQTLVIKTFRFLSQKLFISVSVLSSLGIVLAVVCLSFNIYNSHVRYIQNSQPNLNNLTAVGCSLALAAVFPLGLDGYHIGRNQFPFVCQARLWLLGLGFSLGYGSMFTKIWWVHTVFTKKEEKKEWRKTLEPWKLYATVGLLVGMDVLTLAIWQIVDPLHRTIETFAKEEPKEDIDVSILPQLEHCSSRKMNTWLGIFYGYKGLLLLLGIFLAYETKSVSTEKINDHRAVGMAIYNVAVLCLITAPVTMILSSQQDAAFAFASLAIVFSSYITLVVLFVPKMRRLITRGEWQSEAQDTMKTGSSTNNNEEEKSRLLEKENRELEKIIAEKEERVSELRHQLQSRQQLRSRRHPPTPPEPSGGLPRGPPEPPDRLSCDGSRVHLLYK

[18] = molecular target: V2 (h) (Homo sapiens, UniProt P30518); assay: biochemical; settings: read-out: % Inhibition of Control Specific Binding
[19] = molecular target: APJ (apelin) (h) (Homo sapiens, UniProt P35414); assay: biochemical; settings: read-out: % Inhibition of Control Specific Binding
[20] = molecular target: M2 (h) (Homo sapiens, UniProt P08172); assay: biochemical; settings: read-out: % Inhibition of Control Specific Binding
[21] = molecular target: sst1 (h) (Homo sapiens, UniProt P30872); assay: biochemical; settings: read-out: % Inhibition of Control Specific Binding
sst1 (h), sequence (P30872 whole entry): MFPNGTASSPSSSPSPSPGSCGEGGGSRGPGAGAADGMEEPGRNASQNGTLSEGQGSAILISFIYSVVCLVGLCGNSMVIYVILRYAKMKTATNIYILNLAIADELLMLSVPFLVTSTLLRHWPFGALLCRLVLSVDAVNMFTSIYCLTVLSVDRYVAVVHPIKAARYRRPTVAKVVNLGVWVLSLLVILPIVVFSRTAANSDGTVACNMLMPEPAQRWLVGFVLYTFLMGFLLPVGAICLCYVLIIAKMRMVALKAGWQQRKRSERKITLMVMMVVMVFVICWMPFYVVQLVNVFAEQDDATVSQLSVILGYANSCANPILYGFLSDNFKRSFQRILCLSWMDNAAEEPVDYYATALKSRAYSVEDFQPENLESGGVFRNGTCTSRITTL

[22] = tested on: Ca2+ channel (L, verapamil site) (phenylalkylamine); type: binding
[23] = molecular target: delta 2 (DOP) (h) (Homo sapiens, UniProt P41143); assay: biochemical; settings: read-out: % Inhibition of Control Specific Binding
delta 2 (DOP) (h), sequence (P41143 whole entry): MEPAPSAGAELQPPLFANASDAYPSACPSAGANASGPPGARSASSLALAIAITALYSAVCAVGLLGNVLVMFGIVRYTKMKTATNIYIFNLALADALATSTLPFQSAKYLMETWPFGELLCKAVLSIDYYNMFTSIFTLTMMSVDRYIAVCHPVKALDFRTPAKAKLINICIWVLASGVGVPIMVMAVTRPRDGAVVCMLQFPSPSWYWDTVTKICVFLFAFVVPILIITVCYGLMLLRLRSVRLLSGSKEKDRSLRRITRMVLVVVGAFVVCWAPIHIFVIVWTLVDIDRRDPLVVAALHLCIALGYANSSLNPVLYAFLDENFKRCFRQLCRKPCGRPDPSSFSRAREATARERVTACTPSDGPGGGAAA

[24] = molecular target: sst4 (h) (Homo sapiens, UniProt P31391); assay: biochemical; settings: read-out: % Inhibition of Control Specific Binding
[25] = tested on: TR (TH); type: binding
[26] = molecular target: alpha 2B (h) (Homo sapiens, UniProt P18089); assay: biochemical; settings: read-out: % Inhibition of Control Specific Binding
[27] = molecular target: Y1 (h) (Homo sapiens, UniProt P25929); assay: biochemical; settings: read-out: % Inhibition of Control Specific Binding
Y1 (h), sequence (P25929 whole entry): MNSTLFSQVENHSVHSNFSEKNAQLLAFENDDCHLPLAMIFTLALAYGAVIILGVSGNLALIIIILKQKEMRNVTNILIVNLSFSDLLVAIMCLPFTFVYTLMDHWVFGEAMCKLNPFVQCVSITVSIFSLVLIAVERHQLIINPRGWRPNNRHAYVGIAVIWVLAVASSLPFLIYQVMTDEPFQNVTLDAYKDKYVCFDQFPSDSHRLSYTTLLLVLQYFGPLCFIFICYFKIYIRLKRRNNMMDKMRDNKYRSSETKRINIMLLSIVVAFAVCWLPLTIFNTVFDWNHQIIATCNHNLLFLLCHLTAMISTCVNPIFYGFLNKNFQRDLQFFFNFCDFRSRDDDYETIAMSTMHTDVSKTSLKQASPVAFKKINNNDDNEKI

[28] = molecular target: BRD2(2) (Homo sapiens, UniProt P25440)
BRD2(2), sequence (P25440 344-453 limits assumed): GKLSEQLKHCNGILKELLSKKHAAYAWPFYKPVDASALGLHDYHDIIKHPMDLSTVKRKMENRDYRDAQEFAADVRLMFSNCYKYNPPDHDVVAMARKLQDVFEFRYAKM

[29] = molecular target: BRD4(1) (Homo sapiens, UniProt O60885); type: binding
[30] = molecular target: N muscle-type (h) (Homo sapiens, UniProt P02708+P07510+Q07001); assay: biochemical; settings: read-out: % Inhibition of Control Specific Binding
[31] = molecular target: M1 (h) (Homo sapiens, UniProt P11229); assay: biochemical; settings: read-out: % Inhibition of Control Specific Binding
[32] = molecular target: beta 3 (h) (Homo sapiens, UniProt P13945); assay: biochemical; type: binding; settings: read-out: % Inhibition of Control Specific Binding
[33] = molecular target: V1a (h) (Homo sapiens, UniProt P37288); assay: biochemical; settings: read-out: % Inhibition of Control Specific Binding
[34] = molecular target: dopamine transporter (h) (Homo sapiens, UniProt Q01959); assay: biochemical; settings: read-out: % Inhibition of Control Specific Binding
[35] = molecular target: A3 (h) (Homo sapiens, UniProt P0DMS8); assay: biochemical; settings: read-out: % Inhibition of Control Specific Binding
A3 (h), sequence (P0DMS8 whole entry): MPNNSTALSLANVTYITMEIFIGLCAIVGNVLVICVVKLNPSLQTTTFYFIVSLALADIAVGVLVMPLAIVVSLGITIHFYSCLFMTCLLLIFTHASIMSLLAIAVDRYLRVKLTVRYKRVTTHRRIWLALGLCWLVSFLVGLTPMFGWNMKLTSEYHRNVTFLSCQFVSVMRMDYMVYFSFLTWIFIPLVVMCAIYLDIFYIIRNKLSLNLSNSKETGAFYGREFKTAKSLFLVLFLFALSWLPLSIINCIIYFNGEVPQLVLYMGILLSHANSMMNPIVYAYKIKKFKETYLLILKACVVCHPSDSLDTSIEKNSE

[36] = tested on: BZD (central); type: binding

T1 sequence (Q86U86 653-763 limits assumed): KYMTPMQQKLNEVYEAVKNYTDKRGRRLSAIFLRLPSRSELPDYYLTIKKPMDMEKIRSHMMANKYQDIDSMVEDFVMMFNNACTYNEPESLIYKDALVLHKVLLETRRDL

SMILES: CCOC(=O)Nc1cc(-c2ccc(C)c(NS(C)(=O)=O)c2)nn2c(C)nnc12 [BSP, ethyl (3-methyl-6-(4-methyl-3-(methylsulfonamido)phenyl)-[1,2,4]triazolo[4,3-b]pyridazin-8-yl)carbamate]
- N [1]: 1.09 ± 0.053
- TΔS [1]: 3.20 kcal/mol
- ΔG [1]: -6.39 kcal/mol
- ΔH^obs [1]: -3.19 ± 0.183 kcal/mol
- inhibition at 10 µM [2]: 3%
- N [3]: 1.05 ± 0.025
- TΔS [3]: 4.12 kcal/mol
- ΔG [3]: -7.16 kcal/mol
- ΔH^obs [3]: -3.04 ± 0.095 kcal/mol
- N [4]: 1.04 ± 0.002
- TΔS [4]: -6.60 kcal/mol
- ΔG [4]: -10.68 kcal/mol
- ΔH^obs [4]: -17.28 ± 0.062 kcal/mol
- inhibition at 10 µM [5]: -8%
- inhibition at 10 µM [6]: -9%
- inhibition at 10 µM [7]: 17%
- inhibition at 10 µM [8]: 1%
- inhibition at 10 µM [9]: -8%
- inhibition at 10 µM [10]: -1%
- inhibition at 10 µM [11]: 2%
- inhibition at 10 µM [12]: -4%
- FRAP, chromatin interaction of BRD9 [13]: displacement of proteins from chromatin
- % Inhibition of Control Specific Binding [14]: 4
- N [15]: 0.99 ± 0.003
- TΔS [15]: -2.76 kcal/mol
- ΔG [15]: -9.72 kcal/mol
- ΔH^obs [15]: -12.48 ± 0.069 kcal/mol
- effect on cell cycle [16]: little effect on cell cycle
- inhibition at 10 µM [17]: 13%
- inhibition at 10 µM [18]: -11%
- inhibition at 10 µM [19]: -2%
- inhibition at 10 µM [20]: 12%
- inhibition at 10 µM [21]: -6%
- % Inhibition of Control Specific Binding [22]: -8
- inhibition at 10 µM [23]: 7%
- inhibition at 10 µM [24]: 19%
- % Inhibition of Control Specific Binding [25]: 11
- inhibition at 10 µM [26]: 2%
- inhibition at 10 µM [27]: -10%
- N [28]: 1.10 ± 0.003
- TΔS [28]: 4.18 kcal/mol
- ΔG [28]: -9.64 kcal/mol
- ΔH^obs [28]: -5.46 ± 0.028 kcal/mol
- N [29]: 0.94 ± 0.002
- TΔS [29]: -1.36 kcal/mol
- ΔH^obs [29]: -11.09 ± 0.038 kcal/mol
- inhibition at 10 µM [30]: -7%
- inhibition at 10 µM [31]: 39%
- inhibition at 10 µM [32]: 11%
- inhibition at 10 µM [33]: -6%
- inhibition at 10 µM [34]: 28%
- inhibition at 10 µM [35]: 100%
- % Inhibition of Control Specific Binding [36]: -8
